Assay results as given in patent publication US9035056B2, “Pyrido[4,3-b]indole and pyrido[3,4-b]indole derivatives and methods of use” (Medivation Technologies, Inc., priority 2011, dated 2015).

How the values were obtained:
[1] = biological target: T1, human recombinant histamine H1 receptor (Homo sapiens, UniProt P35367); experiment: Histamine H1 radioligand binding ([3H]Pyrilamine); conditions: 1 μM compound; read-out: Binding data (Percentage inhibition) Histamine H1 (1 μM)
T1 construct: expressed in transfected cells; host or cells: CHO-K1
T1 sequence (P35367 whole entry): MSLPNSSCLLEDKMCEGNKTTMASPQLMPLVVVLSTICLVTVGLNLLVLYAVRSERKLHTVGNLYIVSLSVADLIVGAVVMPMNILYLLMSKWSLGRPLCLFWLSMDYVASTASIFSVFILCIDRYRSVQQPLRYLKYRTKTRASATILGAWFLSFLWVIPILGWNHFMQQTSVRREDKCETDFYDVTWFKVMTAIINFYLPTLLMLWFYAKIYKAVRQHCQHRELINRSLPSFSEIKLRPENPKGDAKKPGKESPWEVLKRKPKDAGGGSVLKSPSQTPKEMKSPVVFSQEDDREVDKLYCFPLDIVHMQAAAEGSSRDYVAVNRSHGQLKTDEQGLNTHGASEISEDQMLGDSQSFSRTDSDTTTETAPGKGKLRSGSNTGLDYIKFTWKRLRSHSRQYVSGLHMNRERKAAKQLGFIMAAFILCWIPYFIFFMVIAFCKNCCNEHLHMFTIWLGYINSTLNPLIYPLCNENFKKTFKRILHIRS
Experimental: To evaluate in radioligand binding assays the activity of compounds of the invention, human recombinant histamine H1 receptor expressed in Chinese hamster ovary (CHO) K1 cells (De Backer, M. et al, Biochem. Biophys. Res. Comm. 197(3):1601, 1993) in a modified Tris-HCl buffer (50 mM Tris-HCl, pH 7.4, 2 mM MgCl2, 100 mM NaCl, 250 mM Sucrose) was used. Compounds of the invention were incubated with 1.2 nM [^3H]Pyrilamine for 180 min at 25° C. Non-specific binding was estimated in the presence of 1 μM Pyrilamine. Receptor proteins were filtered and washed, the filters were then counted to determine [^3H]Pyrilamine specifically bound. Compounds were screened at 1 μM or lower, using 1% DMSO as vehicle. Biochemical assay results are presented as the percent inhibition of specific binding in Table 3.

[2] = biological target: T2, human recombinant dopamine D2L receptor (Homo sapiens, UniProt P14416); experiment: Dopamine D2L radioligand binding ([3H]Spiperone); conditions: 1 μM compound; read-out: Percentage inhibition of ligand binding, Dopamine D2L
T2 construct: expressed in transfected cells; host or cells: CHO
T2 sequence (P14416 whole entry): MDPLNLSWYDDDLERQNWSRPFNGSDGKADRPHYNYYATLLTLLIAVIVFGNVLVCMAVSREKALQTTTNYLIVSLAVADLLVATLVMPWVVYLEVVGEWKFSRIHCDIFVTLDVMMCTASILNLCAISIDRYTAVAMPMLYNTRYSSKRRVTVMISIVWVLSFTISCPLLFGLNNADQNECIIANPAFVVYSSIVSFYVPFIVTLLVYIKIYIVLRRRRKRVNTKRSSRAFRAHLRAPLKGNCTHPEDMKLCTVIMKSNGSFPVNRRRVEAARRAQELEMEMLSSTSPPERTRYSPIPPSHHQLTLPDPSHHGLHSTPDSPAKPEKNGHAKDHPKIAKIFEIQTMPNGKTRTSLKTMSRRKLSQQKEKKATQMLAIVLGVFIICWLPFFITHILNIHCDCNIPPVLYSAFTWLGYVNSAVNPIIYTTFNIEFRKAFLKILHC
Experimental: To evaluate in radioligand binding assays the activity of compounds of the invention, human recombinant dopamine D2L receptor expressed in Chinese hamster ovary (CHO) cells (Grandy, D. et al, Proc. Natl. Acad. Sci. USA. 86:9762, 1989; Hayes, G. et al, Mol. Endocrinol. 6:920, 1992) in a modified Tris-HCl buffer (50 mM Tris-HCl, pH 7.4, 1.4 mM Ascorbic Acid, 0.001% BSA, 150 mM NaCl) was used. Compounds of the invention were incubated with 0.16 nM [^3H]Spiperone for 120 min at 25° C. Non-specific binding was estimated in the presence of 10 μM Haloperidol. Receptor proteins were filtered and washed, the filters were then counted to determine [^3H]Spiperone specifically bound. Compounds were screened at 1 μM or lower, using 1% DMSO as vehicle. Biochemical assay results are presented as the percent inhibition of specific binding in Table 4.

[3] = biological target: T3, human recombinant serotonin (5-Hydroxytryptamine) 5-HT2A receptor (Homo sapiens, UniProt P28223); experiment: Serotonin 5-HT2A radioligand binding ([3H]Ketanserin); conditions: 0.1 μM compound; read-out: Percentage inhibition of ligand binding, Serotonin 5-HT2A
T3 construct: expressed in transfected cells; host or cells: CHO-K1
T3 sequence (P28223 whole entry): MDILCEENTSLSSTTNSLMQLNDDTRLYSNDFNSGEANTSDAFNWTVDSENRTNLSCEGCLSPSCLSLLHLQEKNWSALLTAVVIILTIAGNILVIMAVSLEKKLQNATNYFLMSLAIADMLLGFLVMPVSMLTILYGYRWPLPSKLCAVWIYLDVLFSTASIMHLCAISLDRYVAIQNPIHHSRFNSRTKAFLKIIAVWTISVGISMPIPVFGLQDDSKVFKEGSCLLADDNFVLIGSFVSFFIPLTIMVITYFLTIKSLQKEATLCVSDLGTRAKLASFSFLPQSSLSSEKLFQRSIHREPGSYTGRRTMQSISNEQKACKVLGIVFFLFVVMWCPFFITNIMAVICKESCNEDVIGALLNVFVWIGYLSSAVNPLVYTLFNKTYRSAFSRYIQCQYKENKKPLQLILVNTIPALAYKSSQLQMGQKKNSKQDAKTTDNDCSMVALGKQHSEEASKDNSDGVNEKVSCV
Experimental: To evaluate in radioligand binding assays the activity of compounds of the invention, human recombinant serotonin (5-Hydroxytryptamine) 5-HT2A receptor expressed in Chinese hamster ovary (CHO) K1 cells (Bonhaus, D. et al, Br. J. Pharmacol. 115:622, 1995; Saucier, C. et al, J. Neurochem. 68:1998, 1997) in a 50 mM Tris-HCl buffer, pH 7.4, was used. Compounds of the invention were incubated with 0.5 nM [^3H]Ketanserin for 60 min at 25° C. Non-specific binding was estimated in the presence of 1 μM Mianserin. Receptor proteins were filtered and washed, the filters were then counted to determine [^3H]Ketanserin specifically bound. Compounds were screened at 1 μM or lower, using 1% DMSO as vehicle. Biochemical assay results are presented as the percent inhibition of specific binding in Table 5.

[4] = biological target: T4, human recombinant serotonin (5-Hydroxytryptamine) 5-HT2C receptor (Homo sapiens, UniProt P28335); experiment: Serotonin 5-HT2C radioligand binding ([3H]Mesulergine); conditions: 0.1 μM compound; read-out: Percentage inhibition of ligand binding, Serotonin 5-HT2C
T4 construct: expressed in transfected cells; host or cells: CHO-K1
T4 sequence (P28335 33-458): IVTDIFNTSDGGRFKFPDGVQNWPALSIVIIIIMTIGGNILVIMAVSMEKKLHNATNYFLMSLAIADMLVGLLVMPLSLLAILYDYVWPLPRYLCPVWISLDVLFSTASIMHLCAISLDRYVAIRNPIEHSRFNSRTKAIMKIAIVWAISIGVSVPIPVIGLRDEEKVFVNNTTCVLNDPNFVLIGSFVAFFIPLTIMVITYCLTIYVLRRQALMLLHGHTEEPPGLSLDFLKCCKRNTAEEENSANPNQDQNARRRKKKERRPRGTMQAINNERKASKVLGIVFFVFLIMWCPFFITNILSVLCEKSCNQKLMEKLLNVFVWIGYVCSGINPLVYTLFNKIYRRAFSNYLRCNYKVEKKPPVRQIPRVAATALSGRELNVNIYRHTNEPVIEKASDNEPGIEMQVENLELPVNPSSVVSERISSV
Experimental: To evaluate in radioligand binding assays the activity of compounds of the invention, human recombinant serotonin (5-Hydroxytryptamine) 5-HT2C receptor expressed in Chinese hamster ovary (CHO) K1 cells (Wolf, W. et al, J. Neurochem. 69:1449, 1997) in a modified Tris-HCl buffer (50 mM Tris-HCl, pH 7.4, 0.1% Ascorbic Acid, 10 μM Pargyline) was used. Compounds of the invention were incubated with 1 nM [^3H]Mesulergine for 60 min at 25° C. Non-specific binding was estimated in the presence of 1 μM Mianserin. Receptor proteins were filtered and washed, the filters were then counted to determine [^3H]Mesulergine specifically bound. Compounds were screened at 1 μM or lower, using 1% DMSO as vehicle. Biochemical assay results are presented as the percent inhibition of specific binding in Table 5.

[5] = biological target: T5, human recombinant serotonin (5-Hydroxytryptamine) 5-HT6 receptor (Homo sapiens, UniProt P50406); experiment: Serotonin 5-HT6 radioligand binding ([3H]LSD); conditions: 0.1 μM compound; read-out: Percentage inhibition of ligand binding, Serotonin 5-HT6
T5 construct: expressed in transfected cells; host or cells: HeLa
T5 sequence (P50406 whole entry): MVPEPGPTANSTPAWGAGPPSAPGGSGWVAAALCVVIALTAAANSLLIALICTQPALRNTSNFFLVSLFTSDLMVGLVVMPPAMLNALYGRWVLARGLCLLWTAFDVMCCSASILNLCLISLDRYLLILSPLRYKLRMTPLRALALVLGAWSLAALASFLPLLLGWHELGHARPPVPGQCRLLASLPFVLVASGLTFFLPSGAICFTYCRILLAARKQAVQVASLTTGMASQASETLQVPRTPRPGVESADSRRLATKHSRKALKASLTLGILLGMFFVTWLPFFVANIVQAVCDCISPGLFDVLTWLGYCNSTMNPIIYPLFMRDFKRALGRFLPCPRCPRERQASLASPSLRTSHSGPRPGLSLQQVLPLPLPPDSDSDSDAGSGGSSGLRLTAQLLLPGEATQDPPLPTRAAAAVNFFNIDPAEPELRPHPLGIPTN
Experimental: To evaluate in radioligand binding assays the activity of compounds of the invention, human recombinant serotonin (5-Hydroxytryptamine) 5-HT6 receptor expressed in human HeLa cells (Monsma, F. Jr. et al, Mol. Pharmacol. 43:320, 1993) in a modified Tris-HCl buffer (50 mM Tris-HCl, pH 7.4, 150 mM NaCl, 2 mM Ascorbic Acid, 0.001% BSA) was used. Compounds of the invention were incubated with 1.5 nM [3H]Lysergic acid diethylamide (LSD) for 120 min at 37° C. Non-specific binding was estimated in the presence of 5 μM Serotonin (5-HT). Receptor proteins were filtered and washed, the filters were then counted to determine [3H]LSD specifically bound. Compounds were screened at 1 μM or lower, using 1% DMSO as vehicle. Biochemical assay results are presented as the percent inhibition of specific binding in Table 5.

[6] = biological target: T6, human recombinant serotonin (5-Hydroxytryptamine) 5-HT7 receptor (Homo sapiens, UniProt P34969); experiment: Serotonin 5-HT7 radioligand binding ([3H]LSD); conditions: 0.1 μM compound; read-out: Percentage inhibition of ligand binding, Serotonin 5-HT7
T6 construct: expressed in transfected cells; host or cells: CHO
T6 sequence (P34969 whole entry): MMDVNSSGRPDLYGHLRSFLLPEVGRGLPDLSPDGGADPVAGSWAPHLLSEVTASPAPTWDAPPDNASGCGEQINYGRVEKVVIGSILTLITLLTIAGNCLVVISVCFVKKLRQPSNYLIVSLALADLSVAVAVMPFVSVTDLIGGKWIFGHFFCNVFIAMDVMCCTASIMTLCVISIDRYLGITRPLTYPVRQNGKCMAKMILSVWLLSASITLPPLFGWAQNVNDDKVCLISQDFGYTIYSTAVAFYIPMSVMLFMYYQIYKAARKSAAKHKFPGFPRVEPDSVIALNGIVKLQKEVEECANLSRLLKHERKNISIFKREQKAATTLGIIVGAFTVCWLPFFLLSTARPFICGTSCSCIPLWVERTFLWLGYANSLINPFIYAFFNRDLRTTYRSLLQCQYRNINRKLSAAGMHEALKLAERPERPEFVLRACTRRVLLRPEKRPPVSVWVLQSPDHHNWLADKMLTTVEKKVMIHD
Experimental: To evaluate in radioligand binding assays the activity of compounds of the invention, human recombinant serotonin (5-Hydroxytryptamine) 5-HT7 receptor expressed in Chinese hamster ovary (CHO) cells (Roth, B. et al, J. Pharmacol. Exp. Ther. 268:1403, 1994; Shen, Y. et al, J. Biol. Chem. 268:18200, 1993) in a modified Tris-HCl buffer (50 mM Tris-HCl, pH 7.4, 10 mM MgCl2, 0.5 mM EDTA) was used. Compounds of invention were incubated with 5.5 nM [^3H] Lysergic acid diethylamide (LSD) for 2 h at 25° C. Non-specific binding was estimated in the presence of 10 μM Serotonin (5-HT). Receptor proteins were filtered and washed, the filters were then counted to determine [^3H]LSD specifically bound. Compounds were screened at 1 μM or lower, using 1% DMSO as vehicle. Biochemical assay results are presented as the percent inhibition of specific binding in Table 5.

[7] = system: New Zealand White rabbits; conditions: conscious rabbits, intravenous, positive control, before the blood pressure reversed back
Experimental: Four adult New Zealand White rabbits of both sexes are chosen for these studies. The experiments are conducted in accordance with the Australian code of Practice for the Care and use of Animals for Scientific Purposes and approval is sought from the Animal Experimental Committee of Alfred Hospital, Baker IDI, Melbourne, Australia. The conscious rabbits are implanted with an intravenous catheter in marginal ear vein or by centrally by […] catheter interfaced to a pressure transducer connected to a suitable recorder. To unveil peripheral effects of test compound, two sets of acute studies are conducted in rabbits. In the first set of studies, test compound is dosed to rabbit intravenously for a dose-response study with cumulative doses starting 0 (Ringer's Lock solution as a vehicle), 0.1, 0.3, 1, 3.2 and 10 mg/kg where each dose is tested on a separate day. A single intravenous bolus dose at 3 mg/kg is given and a time-course study is conducted in the second set of studies. Systolic, […], mean and […] blood pressures are recorded in both the studies.

SMILES	inhibition at 1 µM [1] [%]	inhibition at 1 µM [2] [%]	inhibition at 0.1 µM [3] [%]	inhibition at 0.1 µM [4] [%]	inhibition at 0.1 µM [5] [%]	inhibition at 0.1 µM [6] [%]	maximum drop of arterial blood pressure [7] [mmHg]
CN1CCc2c(c3cc(Cl)ccc3n2C=C2CCCCC2)C1 [i-1]	100	93	94	98	91	81	
Clc1cccc(Cl)c1N=C1NCCN1 [Clonidine]							−6
